Assay results taken from patent US20080095741A1, “R-(+)-alpha-liponic acid for the prevention of diabetes” (MEDA Pharma GmbH & Co. KG, priority 2004, published 2008).
Where two headings read alike, the source gives them in different places.

How the values were obtained:
[1] = test system: isolated pancreatic cells; details: pre-incubation; radical-generating system or activated macrophages; Burkart et al., 1993; cited from earlier work
biobreed rat = experiment: Preventive therapy in the biobreed rat model of diabetes (occurrence and progression); type: in vivo
Excerpt: The experiments for the primary and secondary prevention of diabetes with α-lipoic acid or its derivatives were investigated using a suitable model system. The biobreed rat is a model of diabetes in which a primary loss of p cells also occurs on account of autoimmune processes. […] A secondary stress of the p cells occurs with the simultaneous development of hyperglycemia on account of the increasing glucose toxicity. Thus, pathogenic processes are reflected in this model that stand in the foreground of the progression of the disease and contribute to the progression in all forms of diabetes.
A preventive therapy with racemic α-lipoic acid as well as the two enantiomers took place in the biobreed rat.
This allows the conclusion that for the primary and secondary prevention of diabetes only the R-configured, dextrorotary enantiomer is suitable, as well as derivatives derived from it with intact dithiolane structure. This can be used just as suitably for the prevention of the secondary loss of function of β cells after transplantation.

NOD mouse = details: Faust et al., 1994, cited from earlier work
β cells = details: Kaneto et al., 1999; cited from earlier work
Biobreed rats [2] = experiment: Biobreed rat, development and progression of diabetes determined by weight loss as surrogate; type: in vivo; details: chronic ip, tromethamine salt
Protocol: Biobreed rats (male and female, 130-180 g) 5-19 weeks old were chronically treated (ip) with different doses of R-(+)-α-lipoic acid as tromethamine salt. The development and progression of diabetes was determined by weight loss as surrogate. […] Biobreed rats (male and female, 130-180 g) 5-19 weeks old were each chronically treated (ip) with 36.6 mg of different lipoic acid derivatives (as tromethamine salt). The development and progression of diabetes was determined by daily weight measuring as surrogate.

Biobreed rats [3] = experiment: Biobreed rat, development and progression of diabetes determined by daily measuring of the blood sugar as surrogate; type: in vivo; details: chronic ip, tromethamine salt, blood from the caudal vein
Protocol: Biobreed rats (male and female, 130-180 g) 5-19 weeks old were chronically treated (ip) with different doses of R-(+)-α-lipoic acid as tromethamine salt. The development and progression of diabetes was determined by daily measuring of the blood sugar (taken from the caudal vein) as surrogate. […] Biobreed rats (male and female, 130-180 g) 5-19 weeks old were each chronically treated with 36.6 mg of different lipoic acid derivatives (as tromethamine salt (ip)). with as tromethamine salt. The development and progression of diabetes was determined by daily measuring of the blood sugar (taken from the caudal vein) as surrogate.

Biobreed rats [4] = experiment: Biobreed rat, survival time and water consumption as further surrogates; type: in vivo; details: dose-dependent
Protocol: The survival time and the water consumption were determined as further surrogates for the occurrence and deterioration of diabetes.

Compound: O=C(O)CCCC[C@@H](S)CCS (racemic) [racemic dihydrolipoic acid]
- protection of pancreatic cells from lysis [1]: partially protected from lysis

Compound: O=C(O)CCCCC1CCSS1 (racemic) [racemic mixture]
- occurrence of diabetes (biobreed rat): remained without effect
- progression of manifest diabetes (biobreed rat): remained without effect
- infiltration with immunocompetent cells into pancreatic tissue (surrogate of β cell destruction) (NOD mouse; chronic administration, without cytotoxin): had no influence
- protective action (NOD mouse; with additional intoxication with cyclophosphamide): protective action

Compound: O=C(O)CCCC[C@H]1CCSS1 (single isomer, unassigned) [S-(−)- enantiomer]
- occurrence of diabetes (biobreed rat): remained without effect
- progression of manifest diabetes (biobreed rat): remained without effect

Compound: CC(=O)N[C@@H](CS)C(=O)O [N-acetylcystein]
- effect on the glucose toxicity of β cells (β cells): a certain protective action

Compound: O=C(O)CCCCC1CCSS1 (stereo not drawn) [R-(+)-α-lipoic acid, 1,2-dithiolane-3-pentanoic acid]
- progression of diabetes (weight loss as surrogate) (Biobreed rats [2]; Example 1, different doses): delayed progression of diabetes in a dose-dependent manner
- progression of diabetes (daily weight measuring as surrogate) (Biobreed rats [2]; Example 2, 36.6 mg): had an effect on the progression of diabetes
- progression of a rise in blood sugar (Biobreed rats [3]; Example 3, different doses): delayed progression of a rise in blood sugar in a dose-dependent manner
- progression of diabetes (daily blood sugar as surrogate) (Biobreed rats [3]; Example 4, 36.6 mg): had an effect on the progression of diabetes
- occurrence of diabetes (biobreed rat; listed as R-(+)-enantiomer): can be delayed
- progression of manifest diabetes (biobreed rat; listed as R-(+)-enantiomer): distinctly attenuated in a dose-dependent manner
- increase of the consumption of water (Biobreed rats [4]): positive effect
- survival time (Biobreed rats [4]): positive effect

Compound: vitamin E
- effect on the glucose toxicity of β cells (β cells): no effect
